The record followed here is ChEMBL document CHEMBL5728812, “Inhibitors of Plasma Kallikrein and uses thereof” (2021).

For the experiment, the target named is Plasma kallikrein (Homo sapiens, UniProt P03952). Kind of experiment: Inhibitory Activity Assay: Plasma Kallikrein: The example compounds were evaluated for inhibition of the human activated kallikrein enzyme in two formats of an assay employing a fluorogenic peptide substrate. In one assay format, the concentrations of reagents were as follows: 20 mM Tris pH 7.5, 1 mM EDTA, 150 mM sodium chloride, 0.1% PEG-400, 0.1% Triton X-100, 500 pM activated kallikrein enzyme, 300 uM Pro-Phe-Arg-7-amido-4-methylcoumarin substrate. Prior to reaction initiation with substrate, enzyme and inhibitors were preincubated for 30 min at room temperature. After initiation with substrate, reactions were incubated for 10 min at room temperature and fluorescence emission at 460 nm from 380 nm excitation measured with a microplate reader. In another assay format, the concentrations of reagents were as follows: 20 mM Tris pH 7.5, 1 mM EDTA, 150 mM sodium chloride, 0.1% PEG-400, 0.1% Triton X-100, 5 pM activated kallikrein enzyme, 300 uM Pro-Phe-Arg-7-amido-4-methylcoumarin substrate. Prior to reaction initiation with substrate, enzyme and inhibitors were preincubated for 30 min at room temperature. After initiation with substrate, reactions were incubated for 18 hr at room temperature and fluorescence emission at 460 nm from 380 nm excitation measured with a microplate reader.
Chain of Plasma kallikrein (P03952 20-390 limits assumed): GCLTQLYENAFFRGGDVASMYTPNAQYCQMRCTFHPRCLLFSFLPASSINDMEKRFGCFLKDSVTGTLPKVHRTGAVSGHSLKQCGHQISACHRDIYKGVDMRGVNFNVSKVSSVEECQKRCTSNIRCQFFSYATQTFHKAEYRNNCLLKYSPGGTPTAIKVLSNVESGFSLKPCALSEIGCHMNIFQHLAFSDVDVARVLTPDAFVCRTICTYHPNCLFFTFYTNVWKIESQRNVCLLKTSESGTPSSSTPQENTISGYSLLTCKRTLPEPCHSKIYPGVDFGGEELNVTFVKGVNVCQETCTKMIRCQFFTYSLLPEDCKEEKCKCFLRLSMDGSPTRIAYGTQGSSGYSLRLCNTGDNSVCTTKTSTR
Chain of Plasma kallikrein (P03952 391-638 limits assumed): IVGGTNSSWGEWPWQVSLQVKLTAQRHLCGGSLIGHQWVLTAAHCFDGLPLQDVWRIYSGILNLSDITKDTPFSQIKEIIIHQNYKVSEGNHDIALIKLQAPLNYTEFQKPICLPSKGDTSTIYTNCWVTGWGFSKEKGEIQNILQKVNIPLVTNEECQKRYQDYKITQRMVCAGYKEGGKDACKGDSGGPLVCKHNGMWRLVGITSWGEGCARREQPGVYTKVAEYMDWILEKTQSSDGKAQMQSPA

SMILES strings stand for the structures.

Turning to `CNC(=O)[C@H](CCCCNC(=N)N)NC(=O)c1csc([C@@H]2C[C@@H](N)CN2C(=O)c2ccc3cc(Cl)ccc3n2)n1`, the EC50 (usually the concentration needed to bring the measured effect to its halfway point) is < 100 nM.
